We go through eleven compounds from patent publication US20240368163A1, “COMPOUNDS AND METHODS FOR MODULATING SPLICING” (REMIX THERAPEUTICS INC., priority 2021, published 2024).

One may read the IC50 as the concentration that inhibits the measured activity by half.

Format in all cases: cell-based, human
Experiment [1] deals with HTT. Put plainly: HiBiT protein abundance assay, HTT. The note with it: Homo sapiens, K562, 24 h, Table 13A, modified K562 cells. Summed up: (§1)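 Target abundance was measured as HiBiT luminescence after 24 h compound treatment of tagged K562 cells. Responses were normalized between unmodified K562 and DMSO-treated tagged cells, and IC50 taken at the 50% level of a 4PL curve.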
For orientation: The HiBiT peptide binds its large partner to form an active luciferase.

The subject of experiment [2] is HTT. In words: Splicing RT-qPCR assay, HTT mRNA canonical junction (CJ) and alternative junction (AJ). The following applies: Homo sapiens, RT-qPCR panel, canonical junction mRNA; compound concentration having 50% response in CJ decrease; read-out: HTT IC50 (decrease in CJ mRNA levels). An outline of the steps:
(§2)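 Splice switching is measured in A673 or K562 cells after 24 h compound exposure (maximum 10 uM, 3-fold steps). Canonical and alternative junction mRNA levels are quantified by RT-qPCR relative to housekeeper and DMSO.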
A general note: In qPCR the cycle at which signal appears reflects the starting amount.

The subject of experiment [3] is SMN2. In words: Splicing RT-qPCR panel, SMN2 canonical junction (CJ) mRNA. The following applies: Homo sapiens, RT-qPCR panel, canonical junction mRNA; compound concentration having 50% response in CJ decrease; read-out: SMN2 IC50 (decrease in CJ mRNA levels). An outline of the steps:
as §2

In experiment [4] the test system is Target C. In words: Splicing RT-qPCR panel, Target C canonical junction (CJ) mRNA. The note with it: Homo sapiens, RT-qPCR panel, canonical junction mRNA; compound concentration having 50% response in CJ decrease; read-out: Target C IC50 (decrease in CJ mRNA levels). An outline of the steps: as §2
Experiment [5] relates to MYB. Put plainly: HiBiT protein abundance assay, MYB. The note with it: Homo sapiens, K562, 24 h, Table 13A, modified K562 cells. An outline of the steps:
as §1

The test system of experiment [6] is Target C. Put plainly: HiBiT protein abundance assay, Target C. The following applies: Homo sapiens, K562, 24 h, Table 13A, modified K562 cells. An outline of the steps:
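Cells carrying the HiBiT knock-in were plated at 10000 cells/well, dosed with compound (10-point, 3-fold, 10 μM top final) and incubated 24 hours at 37 °C. Lytic reagent was then added and luminescence read. Percent response fed a 4PL fit for IC50.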

In experiment [7] the test system is MYB. Put plainly: Splicing RT-qPCR assay, MYB mRNA canonical junction (CJ) and alternative junction (AJ). The following applies: Homo sapiens, RT-qPCR panel, canonical junction mRNA; compound concentration having 50% response in CJ decrease; read-out: MYB IC50 (decrease in CJ mRNA levels). Summed up: as §2

Regarding `CC1(C)CN(c2ncc(-c3ccc(-c4cn[nH]c4)c4ncsc34)nn2)CC(C)(C)N1` [Compound 563], the IC50 is 1000 to 10000 nM in experiment [1]; 1000 to 10000 nM in experiment [2]; 1000 to 10000 nM in experiment [3]; more than 10000 nM in experiment [4]; 1000 to 10000 nM in experiment [5]; 1000 to 10000 nM in experiment [6]. In addition, the IC50 in experiment [7] lay in the range of 1000 to 10000 nM.
For the compound `CN1CCN(c2ncc(-c3ccc(-c4cn[nH]c4)c4ncsc34)nn2)CC1C1CC1` (centres unmarked) [Compound 564], the IC50 in experiment [1] lay in the range of 100 to 1000 nM; in experiment [2], 100 to 1000 nM; in experiment [3], 100 to 1000 nM; in experiment [4] it was 1000 to 10000 nM; in experiment [5] it was 1000 to 10000 nM; in experiment [6], 100 to 1000 nM. Moreover, the IC50 in experiment [7] lay within 1000 to 10000 nM.
Turning to `c1nc2c(-c3cn[nH]c3)ccc(-c3cnc(N4CCN5CCCC5C4)nn3)c2s1` (centres unmarked) [Compound 565], the IC50 is 1000 to 10000 nM in experiment [1]; 1000 to 10000 nM in experiment [2]; 1000 to 10000 nM in experiment [3]; more than 10000 nM in experiment [4]; 1000 to 10000 nM in experiment [5]; 1000 to 10000 nM in experiment [6]. Moreover, the IC50 in experiment [7] was 1000 to 10000 nM.
Regarding `c1nc2c(-c3cn[nH]c3)ccc(-c3cnc(N4CCN5CCCCC5C4)nn3)c2s1` (centres unmarked) [Compound 566], the IC50 in experiment [1] lay in the range of 100 to 1000 nM; in experiment [2], 100 to 1000 nM; in experiment [3], 1000 to 10000 nM; in experiment [4], 1000 to 10000 nM; in experiment [5] it was 1000 to 10000 nM; in experiment [6], 1000 to 10000 nM. For the same compound, the IC50 in experiment [7] lay within 1000 to 10000 nM.
Turning to `CN(c1ncc(-c2ccc(-c3cn[nH]c3)c3ncsc23)nn1)C1CC(C)(C)NC(C)(C)C1` [Compound 567], the IC50 in experiment [1] lay in the range of 100 to 1000 nM; in experiment [2] it was 100 to 1000 nM; in experiment [3], 100 to 1000 nM; in experiment [4], 100 to 1000 nM; in experiment [5], 1000 to 10000 nM; in experiment [6] it was 100 to 1000 nM. In addition, the IC50 in experiment [7] was in the range of 1000 to 10000 nM.
Regarding `C[C@H]1CN(c2ncc(-c3ccc(-c4cn[nH]c4)c4ncsc34)nn2)C[C@@H](C2CC2)N1` [Compound 568], the IC50 lay within 100 to 1000 nM in experiment [1]; 100 to 1000 nM in experiment [2]; 1000 to 10000 nM in experiment [3]; 1000 to 10000 nM in experiment [4]; 1000 to 10000 nM in experiment [5]; 1000 to 10000 nM in experiment [6]. In addition, the IC50 in experiment [7] is more than 10000 nM.
`CC(C)(C)NC1CCN(c2ncc(-c3ccc(-c4cn[nH]c4)c4ncsc34)nn2)C1` (centres unmarked) [Compound 569]: the IC50 lay within 100 to 1000 nM in experiment [1]; 100 to 1000 nM in experiment [2]; 1000 to 10000 nM in experiment [3]; 1000 to 10000 nM in experiment [4]; 1000 to 10000 nM in experiment [5]; 1000 to 10000 nM in experiment [6]. Moreover, the IC50 in experiment [7] fell in the range of 1000 to 10000 nM.
Regarding `CC(C)(C)C1CN(c2ncc(-c3ccc(-c4cn[nH]c4)c4ncsc34)nn2)CCN1` (centres unmarked) [Compound 570], the IC50 in experiment [1] is 100 to 1000 nM; in experiment [2] it was 100 to 1000 nM; in experiment [3], 100 to 1000 nM; in experiment [4], 100 to 1000 nM; in experiment [5], 1000 to 10000 nM; in experiment [6], 100 to 1000 nM. The IC50 in experiment [7] lay in the range of 100 to 1000 nM.
As for `C[C@@H]1CN(c2ncc(-c3ccc(-n4cccn4)c4[nH]ncc34)nn2)C[C@H](C)N1` [Compound 571], the IC50 in experiment [1] was in the range of 100 to 1000 nM; in experiment [2], 1000 to 10000 nM; in experiment [3], 1000 to 10000 nM; in experiment [4], 1000 to 10000 nM; in experiment [5] it was 1000 to 10000 nM; in experiment [6], 1000 to 10000 nM. Further, in experiment [7], the IC50 lay in the range of 1000 to 10000 nM.
Consider `CN(c1ncc(-c2ccc(-c3cn[nH]c3)c3ncsc23)nn1)[C@@H]1CC2CCC[C@@H](C1)N2C` [Compound 573], for which the IC50 in experiment [1] was 1000 to 10000 nM; in experiment [2], 1000 to 10000 nM; in experiment [3], more than 10000 nM; in experiment [4], more than 10000 nM; in experiment [5], 1000 to 10000 nM; in experiment [6], 1000 to 10000 nM. Moreover, the IC50 in experiment [7] was more than 10000 nM.
For the compound `CN(c1ncc(-c2ccc(-n3cccn3)c3[nH]ncc23)nn1)[C@@H]1C[C@H]2CCC[C@@H](C1)N2C` [Compound 575], the IC50 in experiment [1] is 100 to 1000 nM; in experiment [2], 100 to 1000 nM; in experiment [3], 1000 to 10000 nM; in experiment [4], 1000 to 10000 nM; in experiment [5], 1000 to 10000 nM; in experiment [6], 1000 to 10000 nM. Besides, the IC50 in experiment [7] is more than 10000 nM.
